Test results from US11819532B2, “Peptide macrocycles against Acinetobacter baumannii” (Hoffmann-La Roche Inc., priority 2018, dated 2023).

Legend:
[1] = Single dose pharmacokinetic study in male rats; conditions: rat, plasma, intravenous bolus dose of 6 mg/kg, read-out: rat clearance, observed in vivo
Method: Three male rats were administered with compound formulation (3 mg/mL in 0.9% saline) as an intravenous bolus dose of 6 mg/kg.
(§1) Blood was sampled at 0.08, 0.25, 0.5, 1, 2, 4, 7 and 24 hours after administration and the blood collecting tubes were centrifuged for 5 min at 5200 g at room temperature to isolate the plasma supernatant.
Concentrations of compound in plasma were analyzed using a LC-MS method with a calibration range of 1-2500 ng/mL. The clearance values are calculated using methods described in the art and are summarised in Example 23.

[2] = Single dose pharmacokinetic study in male cynomolgus monkeys; conditions: cynomolgus monkey, plasma, intravenous bolus dose of 1 mg/kg, read-out: cynomolgus monkey clearance, observed in vivo
Method: Three male monkeys were administered with compound formulation (2 mg/mL in 0.9% saline) as an intravenous bolus dose of 1 mg/kg.
as §1
Concentrations of compound in plasma were analyzed using a LC-MS method with a calibration range of 0.5-2500 ng/mL and are summarised in Example 23.

primary hepatocytes [3] = test: Hepatocyte uptake assay scaled to in vivo clearance (rat); assay type: in vitro ADME; conditions: scaled from rat hepatocyte uptake, well-stirred liver model
Text: (§2) The compounds of the present invention are cleared through hepatic uptake, which can be determined experimentally in vitro using methods described in the art (e.g., K. Menochet, K. E. Kenworthy, J. B. Houston, A. Galetin, Journal of Pharmacology and Experimental Therapeutics 2012, 34, 2). In cases where the scaled in vitro hepatocyte uptake clearance data correspond to the clearance observed in animals, a meaningful prediction of the human clearance can be made on the basis of in vitro human hepatocyte uptake data.
(§3) The hepatocyte uptake assay was performed manually in 24-well plates in analogy to a protocol described in the literature (K. Menochet, K. E. Kenworthy, J. B. Houston, A. Galetin, Journal of Pharmacology and Experimental Therapeutics 2012, 34, 2). […] Next, the cell monolayer was lysed using acetonitrile/water 3:1, and the intracellular concentration was measured using LC-MS/MS.
(§4) Total (CLuptake) and passive (CLpassive) uptake clearance values were measured from initial uptake rates in the absence and presence of inhibitors. Uptake rates were calculated over 10 minutes at 37° C. from the slope of the linear regression of the cell concentrations versus time plot. Total and passive uptake clearance values were calculated by dividing the slope by the initial substrate concentration and were normalized for protein content. […]

primary hepatocytes [4] = test: Hepatocyte uptake assay scaled to in vivo clearance (cynomolgus monkey); assay type: in vitro ADME; conditions: scaled from monkey hepatocyte uptake, well-stirred liver model
Text: as §2, §3, §4

primary hepatocytes [5] = test: Hepatocyte uptake assay scaled to in vivo clearance (human); assay type: in vitro ADME; conditions: scaled from human hepatocyte uptake, well-stirred liver model
Text: as §2, §3, §4

A. baumannii ATCC 17978 = test: 50% growth inhibitory concentration (IC50) determination, antimicrobial susceptibility testing; assay type: cell-based; conditions: Acinetobacter baumannii; 50% growth inhibition, A. baumannii strain ATCC17978, Iso-Sensitest medium; read-out: IC50 ATCC17978
Method: The in vitro antimicrobial activity of the compounds was alternatively determined according to the following procedure:
The assay used a 10-points Iso-Sensitest broth medium to measure quantitatively the in vitro activity of the compounds against A. baumannii ATCC 17978.
Stock compounds in DMSO were serially twofold diluted (e.g. range from 50 to 0.097 μM or from 10 to 0.020 μM final concentration) in 384 wells microtiter plates and inoculated with 49 μl the bacterial suspension in Iso-Sensitest medium to have a final cell concentration of ˜5×10^(5)CFU/ml in a final volume/well of 50 μl/well. Microtiter plates were incubated at 35±2° C.
Bacterial cell growth was determined with the measurement of optical density at X=600 nm each 20 minutes over a time course of 16h.
Growth inhibition was calculated during the logarithmic growth of the bacterial cells with determination of the concentration inhibiting 50% (IC50) and 90% (IC90) of the growth.
Table 1 provides the 50% growth inhibitory concentrations (IC50) in micromoles per liter of the compounds of present invention obtained against the A. baumannii strain ATCC17978.

[6] = Plasma precipitation screening assay; parameters: species or system rat
Method: An aliquot (10 μL) of compound solubilized in physiological buffer or the formulation used for its parenteral administration in vivo, and of various dilutions thereof in phosphate-buffered saline (PBS), is mixed 1:1 with rat plasma. After 10 minutes incubation at room temperature the UV-absorption of the mixtures is measured and compared to absorption of blank plasma or plasma with vehicle solution. A significant (often concentration dependent) increase of absorption is indicative of precipitation.
Whole blood is obtained from WISTAR rats (Hanbrl:Wist SPF) under terminal anaesthesia after intraperitoneal injection of a pentobarbital solution (from animals euthanized for collection of tissue for other experimental purposes). Blood is collected in 1.2 mL of Heparin S-Monovette tubes (Sarstedt) for the preparation of heparin plasma.
The tubes are then centrifuged for 5 min at 5200 g at room temperature to isolate the plasma supernatant. The plasma is used in the assay within 48 h of collection (storage at 4° C.).
Test compounds are received as powder or formulated. When obtained as powder, they are solubilized in 0.9% aq. sodium chloride solution in order to get the highest indicated concentration to be tested. The solubility is visually checked and the solutions are filtered using 0.45 PVDF hydrophilic filters (Durapore®, Darmstadt, Germany), to remove possible solid impurities. pH of this initial solution might be measured in the filtered stock solutions, before proceeding to prepare a compound dilution series in PBS (1:1-dilution steps).
The assay is conducted in 384-well plates. 10 μL of rat plasma is added to 10 μL of the various compound solutions. The assay is performed in duplicate. 10 μL of vehicle (0.9% aq. sodium chloride solution, PBS) added to the plasma is used as a negative control. The absorption is measured at 362 nm.
Raw data obtained are absorbance data. The difference between absorbance of the sample and mean absorbance of vehicle is calculated. The minimal effect concentration (MEC) is defined as the lowest concentration giving an absorbance difference, OD362≥0.05.

[7] = positive control and comparator in all assay runs; cited from earlier work
[8] = Wistar (Hanbrl:Wist SPF), rat, 10 min

SMILES | clearance [1] [mL/min/kg] | clearance [2] [mL/min/kg] | rat clearance, in vitro scaled (primary hepatocytes [3]) [mL/min/kg] | cynomolgus monkey clearance, in vitro scaled (primary hepatocytes [4]) [mL/min/kg] | human clearance, in vitro scaled (predicted) (primary hepatocytes [5]) [mL/min/kg] | IC50 (A. baumannii ATCC 17978) [µM] | Plasma precipitation MEC ([6]; minimal effect concentration, lowest concentration giving absorbance difference OD362≥0.05, rat plasma 1:1, 10 minutes room temperature) [µmol/L] | precipitation in plasma [7] | Plasma precipitation MEC [6, 8] [µmol/L]
CN1C(=O)[C@H](CCCCN)NC(=O)[C@H](CCCN)NCc2cccnc2Sc2c(Cl)ccc(-c3ccc(C(=O)O)cc3)c2CNC(=O)[C@@H]1Cc1c[nH]c2ccccc12 [drawing 99, reference compound] | 23.5 | 14.5 | 28.7 | 28.3 | 3.91 |  |  |  | 
CN1C(=O)[C@H](CCCCN)NC(=O)[C@H](CCCN)NCc2cccnc2Sc2cccc(-c3ccc(C(=O)O)cc3)c2CNC(=O)[C@@H]1Cc1c[nH]c2ccccc12 [Example 1.00, 4-[(11S,14S,17S)-14-(4-Aminobutyl)-1-(3-aminopropyl)-17-(1H-indol-3-ylmethyl)-16-methyl-12,15,18-trioxo-2-thia-4,10,13,16,19-pentazatricyclo[19.4.0.03,8]pentacosa-1(25), 3(8),4,6,21,23-hexaen-22-yl]benzoic Acid] | 14.3 | 4.8 | 14.5 | 3.8 | 0.46 | 0.098 | 1110 |  | 
CN1C(=O)[C@H](CCCCN)NC(=O)[C@H](CCCN)NCc2cccnc2Sc2c(Cl)ccc(Cl)c2CNC(=O)[C@@H]1Cc1c[nH]c2ccccc12 [CAS-RN 2097284-11-0, (11S,14S,17S)-14-(4-Aminobutyl)-11-(3-aminopropyl)-22,25-dichloro-17-(1H-indol-3-ylmethyl)-16-methyl-2-thia-4,10,13,16,19-pentazatricyclo[19.4.0.03,8]pentacosa-1(25),3(8),4,6,21,23-hexaene-12,15,18-trione] |  |  |  |  |  |  |  | known to induce precipitation in plasma | 
CN1C(=O)[C@H](CCCCN)NC(=O)[C@H](CCCN)NCc2cccnc2Sc2c(Cl)ccc(-c3ccc(OCC(=O)O)cc3)c2CNC(=O)[C@@H]1Cc1c[nH]c2ccccc12 [Example 241 of WO2017/072062, reference compound] |  |  |  |  |  | 0.05 |  |  | 95
CN1C(=O)[C@H](CCCCN)NC(=O)[C@H](CCCN)NCc2cccnc2Sc2c(Cl)ccc(-c3ccn4nc(C(=O)O)cc4c3)c2CNC(=O)[C@@H]1Cc1c[nH]c2ccccc12 [Example 2.01, 5-[(11S,14S,17S)-14-(4-aminobutyl)-11-(3-aminopropyl)-25-chloro-17-(1H-indo1-3-ylmethyl)-16-methyl-12,15,18-trioxo-2-thia-4,10,13,16,19-pentazatricyclo[19.4.0.03,8]pentacosa-1(25),3(8),4,6,21,23-hexaen-22-yl]pyrazolo[1,5-a]pyridine-2-carboxylic acid] |  |  |  |  |  | 0.02 |  |  | 820
Cc1[nH]c2ccccc2c1C[C@H]1C(=O)NCc2c(cccc2-c2ccc(C(=O)O)cc2)Sc2ncccc2CN[C@@H](CCCN)C(=O)N[C@@H](CCCCN)C(=O)N1C [Example 6.00, 4-[(11S,14S,17S)-14-(4-Aminobutyl)-11-(3-aminopropyl)-16-methyl-17-[(2-methyl-1H-indol-3-yl)methyl]-12,15,18-trioxo-2-thia-4,10,13,16,19-pentazatricyclo[19.4.0.03,8]pentacosa-1(25), 3,5,7,21,23-hexaen-22-yl]benzoic Acid] |  |  |  |  |  | 0.023 |  |  | 1090
